Experimental data taken from patent US20210395226A1, “SUBSTITUTED ARYL COMPOUND AND PREPARATION METHOD THEREFOR AND USE THEREOF” (SICHUAN KELUN-BIOTECH BIOPHARMACEUTICAL CO., LTD., priority 2018, published 2021).
Read-outs that look alike come from different tables or passages of the source.

What was measured:
[1] = biological target: T1, Adenosine A2a receptor (human) membrane (Homo sapiens, UniProt P29274); assay: Determination of competitive inhibition constant (Ki) for adenosine A2a receptor, [3H]-CGS-21680 radioligand; type: binding; details: for Ki(A1)/Ki(A2a): selectivity ratio A1 over A2a
T1 construct: purchased PerkinElmer RBHA2AM400UA
T1 sequence (P29274 whole entry): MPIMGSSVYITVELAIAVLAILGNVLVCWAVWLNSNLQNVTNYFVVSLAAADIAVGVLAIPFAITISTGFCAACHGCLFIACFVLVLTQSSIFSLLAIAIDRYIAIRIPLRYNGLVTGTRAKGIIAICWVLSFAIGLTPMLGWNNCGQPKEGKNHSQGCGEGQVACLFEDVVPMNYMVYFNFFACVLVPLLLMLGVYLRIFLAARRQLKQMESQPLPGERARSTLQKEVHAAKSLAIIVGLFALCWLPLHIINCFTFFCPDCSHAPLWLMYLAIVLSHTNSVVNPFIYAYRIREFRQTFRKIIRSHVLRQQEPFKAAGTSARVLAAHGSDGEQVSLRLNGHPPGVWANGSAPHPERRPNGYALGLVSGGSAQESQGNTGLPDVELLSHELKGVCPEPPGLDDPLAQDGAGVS
Description: (§1) Test Example 1: Determination of Competitive Inhibition Constant (Ki) for Adenosine A1 and A2a Receptors
Adenosine A2a receptor (human) membrane (PerkinElmer, RBHA2AM400UA),
assay buffer for A2a (50 mM Tris-HCl, 10 mM MgCl2, 1 mM EDTA, pH7.4), used to dilute adenosine A2a receptor (human) membrane (human origin) and [^3H]-CGS-21680; and
wash buffer for A2a (50 mM Tris-HCl, 154 mM NaCl, pH7.4).
(§2) Adenosine A1 receptor membrane was diluted to 0.025 μg/μl with assay buffer for A1, and Adenosine A2a receptor membrane was diluted to 0.05 μg/μl with assay buffer for A2a, so as to obtain Adenosine A1 receptor membrane dilution and Adenosine A2a receptor membrane dilution.
(§3) The compound to be tested and CGS-15943 were diluted with DMSO, and 1 W of the compound to be tested, high value control (0.5% DMSO), low value control (1000 nM CGS-15943) were added to a 96-well plate, and 100 W of Adenosine A1 receptor membrane dilution (containing 2.5 μg of membrane) was added to each well of the 96-well plate to obtain A1 detection plate; following the same steps, 100 W of Adenosine A2a receptor membrane dilution (containing 5.0 μg membrane) was added to each well of the 96-well plate to obtain A2a detection plate.
(§4) To the A1 detection plate, 100 μl of radioisotope-labeled ligand [^3H]-DPCPX (diluted with assay buffer for A1, working concentration of which was 1.0 nM) was added; and to the A2a detection plate, 100 μl of radioisotope-labeled ligand [^3H]-CGS-21680 (diluted with assay buffer for A2a, working concentration of which was 6.0 nM) was added. The A1 and A2a detection plates were sealed with tape, and incubated at room temperature for 1 h and 2 h, respectively.
(§5) Unifilter-96 GF/C filter plates were prepared, 50 μl of 0.3% PEI was added to each well of the Unifilter-96 GF/C filter plates, and the resulting filter plates were incubated at room temperature for not less than 0.5 h.
(§6) After the incubation was completed, the reaction solution was transferred from the A1 detection plate and the A2a detection plate to two Unifilter-96 GF/C filter plates, and washed with pre-cooled wash buffer for A1 and wash buffer for A2a, and then the filter plates were dried, sealed at bottom, then 50 W of Microscint 20 fluid scintillation cocktail was added, and then the filter plates were sealed at top, and counted by MicroBeta2 Reader.
(§7) Inhibition rate %=100−(signal value of test well−signal average value of low value control)/(signal average value of high value control−signal average value of low value control)*100.
(§8) EXCEL XLfit was used to fit IC50.
(§9) The calculation formula for competitive inhibition constant (Ki) was: Ki=IC50/(1+concentration of isotope-labeled ligand/Kd), wherein Kd was the dissociation constant of the isotope-labeled ligand.

[2] = biological target: T2, Adenosine A1 receptor (human) membrane (Homo sapiens, UniProt P30542); assay: Determination of competitive inhibition constant (Ki) for adenosine A1 receptor, [3H]-DPCPX radioligand; type: binding; details: 1.0 nM [3H]-DPCPX
T2 construct: purchased PerkinElmer ES-010-M400UA
T2 sequence (P30542 1-326): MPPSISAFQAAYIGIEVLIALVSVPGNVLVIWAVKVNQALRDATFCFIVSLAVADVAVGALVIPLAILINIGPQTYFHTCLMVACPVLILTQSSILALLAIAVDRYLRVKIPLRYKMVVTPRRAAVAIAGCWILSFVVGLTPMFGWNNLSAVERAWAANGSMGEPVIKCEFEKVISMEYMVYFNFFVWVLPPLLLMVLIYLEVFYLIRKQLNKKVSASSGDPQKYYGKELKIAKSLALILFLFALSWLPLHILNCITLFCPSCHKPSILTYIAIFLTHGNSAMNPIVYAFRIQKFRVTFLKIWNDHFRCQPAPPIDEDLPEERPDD
Description: as §1
[^3H]-DPCPX (PerkinElmer, NET974250UC),
Adenosine A1 receptor (human) membrane (PerkinElmer, ES-010-M400UA),
assay buffer for A1 (25 mM HEPES, 5 mM MgCl2, 1 mM CaCl2, 100 mM NaCl, pH7.4), used to dilute adenosine A1 receptor (human) membrane and [^3H]-DPCPX;
wash buffer for A1 (25 mM HEPES, 5 mM MgCl2, 1 mM CaCl2, 100 mM NaCl, pH7.4);
as §2, §3, §4, §5, §6, §7, §8, §9

[3] = Pharmacokinetics (PK) and distribution in brain tissue in rats; type: in vivo, male SD rats
Description: Test Example 3: Study on Pharmacokinetics (PK) and Distribution in Brain Tissue in Rats
The compounds of the present application were administered to male SD rats by intravenous (IV) and intragastric (PO) respectively to investigate the pharmacokinetic characteristics. The dosages of IV and PO were 1 mg/kg and 5 mg/kg, respectively. The solvent for IV was a mixture of 5% DMSO, 5% Solutol (polyethylene glycol 15-hydroxystearate) and 90% saline, and the solvent for PO was 0.5% MC (methyl cellulose sodium). Before IV administration (0 h) and at 0.083 h, 0.25 h, 0.5 h, 1 h, 2 h, 4 h, 6 h, 8 h and 24 h time points after administration, blood samples were collected; before PO administration (0 h) and at 0.25 h, 0.5 h, 1 h, 2 h, 4 h, 6 h, 8 h and 24 h time points after administration, blood samples were collected; the blood samples were anticoagulated with EDTA.K2, and centrifuged to obtain plasma samples. For Compound 11, brain tissue samples were taken and homogenized at 0.25 h, 0.5 h, 1 h, 4 h and 8 h; for Compounds 19 and 32, and brain tissue samples were taken and homogenized at 0.25 h, 0.5 h, 1 h and 8 h (three SD rats were selected for the experiment of distribution in brain tissue at each time point), and the resulting brain tissue homogenate samples were stored at −80° C. The plasma samples and brain tissue homogenate samples were subjected to precipitation of protein, and then LC-MS/MS analysis was performed.
Pharmacokinetic parameters were calculated by means of non-compartmental model by using WinNonlin 6.3 software.

[4] = human A2a receptor membrane, 6.0 nM [3H]-CGS-21680, read-out: Ki(A2a)

SMILES | Ki [1, 4] [nM] | Ki(A1)/Ki(A2a) [1] | Ki [2] [nM] | other results
Cc1cc(-c2cnc(NC(=O)N3CCO[C@@H](C)C3)nc2-c2ccc(F)cc2)cc(Cl)n1 [Compound 36, (S)-N-(5-(2-chloro-6-methylpyridin-4-yl)-4-(4-fluorophenyl)pyrimidin-2-yl)-2-methylmorpholine-4-carboxamide] | 10.6 | 55.0 | 583 | –
Cc1ncnc2ccc(-c3nnc(NC(=O)N(C)Cc4ccccn4)nc3-c3ccc(F)cc3)cc12 [Compound 24, 3-(5-(4-fluorophenyl)-6-(4-methylquinazolin-6-yl)-1,2,4-triazolin-3-yl)-1-methyl-1-(pyridine-2-methyl)urea] | – | 139.1 | 3730 | Ki [1]: 26.8 nM
Cc1ncnc2ccc(-c3cnc(NC(=O)N4CCO[C@@H](C)C4)nc3-c3ccc(F)cc3)cc12 [Compound 34, (S)-N-(4-(4-fluorophenyl)-5-(4-methylquinazolin-6-yl)pyrimidin-2-yl)-2-methylmorpholine-4-carboxamide] | 12.6 | 42.7 | 538 | –
Cc1ncnc2ccc(-c3cnc(NC(=O)N4CCN(C)CC4)nc3-c3ccc(F)cc3)cc12 [Compound 30, N-(4-(4-fluorophenyl)-5-(4-methylquinazolin-6-yl)pyrimidin-2-yl)-4-methylpiperazine-1-carboxamide] | 21.2 | 75.0 | 1590 | –
CNC(=O)Nc1ncc(-c2ccc3ncnc(C)c3c2)c(-c2ccc(F)cc2)n1 [Compound 5, 1-(4-(4-fluorophenyl)-5-(4-methylquinazolin-6-yl)pyrimidin-2-yl)-3-methylurea] | 15.6 | >507.5 | > 7920 | –
Cc1cc(-c2nnc(NC(=O)N3CCC(N4CCCCC4)CC3)nc2-c2ccc(C)o2)cc(Cl)n1 [Compound 26, N-(6-(2-chloro-6-methylpyridin-4-yl)-5-(5-methylfuran-2-yl)-1,2,4-triazin-3-yl)-[1,4′-bipiperidine]-1′-carboxamide] | 9.9 | 403.8 | 4000 | –
CN(Cc1ccccn1)C(=O)Nc1ncc(-c2cc(Cl)nc(C(F)(F)F)c2)c(-c2ccc(F)cc2)n1 [Compound 16, 3-(5-(2-chloro-6-(trifluoromethyl)pyridin-4-yl)-4-(4-fluorophenyl)pyrimidin-2-yl)-1-methyl-1-(pyridin-2-ylmethyl)urea] | 21.5 | 361.6 | 7770 | –
Cc1cc(-c2cnc(NC(=O)N3CCO[C@H](C)C3)nc2-c2ccc(F)cc2)cc(Cl)n1 [Compound 38, (R)-N-(5-(2-chloro-6-methylpyridin-4-yl)-4-(4-fluorophenyl)pyrimidin-2-yl)-2-methylmorpholine-4-carboxamide] | 13.1 | 107.4 | 1410 | –
Cc1ncnc2ccc(-c3cc(F)c(NC(=O)N4CCOCC4)nc3-c3ccc(F)cc3)cc12 [Compound 32, N-(3-fluoro-6-(4-fluorophenyl)-5-(4-methylquinazolin-6-yl)pyridin-2-yl) morpholine-4-carboxamide] | 9.5 | 56.2 | 534 | bioavailability ([3]; male, SD, plasma, rat, oral 5 mg/kg compared with intravenous 1 mg/kg): 80.2%; Cmax ([3]; male, SD, rat plasma, IV, 1 mg/kg): 1480 ng/mL; AUC(0-t) ([3]; male, SD, rat plasma, IV, 1 mg/kg, read-out: AUClast): 1820 ng·h/mL; AUC(0-t) ([3]; male, SD, rat plasma, PO, 5 mg/kg, read-out: AUClast (plasma)): 7310 ng·h/mL; AUClast (brain) ([3]; rat brain tissue, PO, 5 mg/kg): 52.9 ng·h/g; Plasma AUClast/brain AUClast ([3]; rat, PO, 5 mg/kg): 138/1
Cc1ccc(-c2nc(NC(=O)N(C)Cc3ccccn3)nnc2-c2ccc3ncnc(C)c3c2)o1 [Compound 25, 1-methyl-3-(5-(5-methylfuran-2-yl)-6-(4-methylquinazolin-6-yl)-1,2,4-triazin-3-yl)-1-(pyridin-2-yl-methyl)urea] | – | 45.7 | 178 | Ki [1]: 3.9 nM

The remaining compounds from weak to strong by Ki [1, 4], led by results:

Ki [1, 4] [nM] | Ki(A1)/Ki(A2a) [1] | Ki [2] [nM] | SMILES | other results
9.6 | 339.0 | 3250 | Cc1ncnc2ccc(-c3ccc(N)nc3-c3ccc(F)cc3)cc12 [Compound 1, 6-(4-fluorophenyl)-5-(4-methylquinazolin-6-yl)pyridin-2-amine] | –
9 | 197.5 | 1780 | Cc1cc(Cl)cc(-c2nnc(NC(=O)N3CCC(N4CCCCC4)CC3)nc2-c2ccc(C)o2)c1 [Compound 28, N-(6-(3-chloro-5-methylphenyl)-5-(5-methylfuran-2-yl)-1,2,4-triazin-3-yl)-[1,4′-bipiperidine]-1′-carboxamide] | –
5.13 | 42.4 | 217 | Cc1ccnc2ccc(-c3c(-c4ccc(F)cc4)nc(NC(=O)N4CCOCC4)nc3C3CC3)cc12 [Compound 47, N-(4-cyclopropyl-6-(4-fluorophenyl)-5-(4-methylquinolin-6-yl)pyrimidin-2-yl)morpholine-4-carboxamide] | –
4.7 | 146.8 | 690 | Cc1ncnc2ccc(-c3cnc(NC(=O)N4CCC(C#N)CC4)nc3-c3ccc(F)cc3)cc12 [Compound 10, 4-cyano-N-(4-(4-fluorophenyl)-5-(4-methylquinazolin-6-yl)pyrimidin-2-yl) piperidine-1-carboxamide] | –
4.6 | 44.5 | 205 | Cc1cc(-c2cnc(N)nc2-c2ccc(F)cc2)cc(Cl)n1 [Compound 17, 5-(2-chloro-6-methylpyridin-4-yl)-4-(4-fluorophenyl)pyrimidin-2-amine] | –
